Reference: patent publication US9034856B2, “17-(1′propenyl)-17-3′-oxidoestra-4-en-3-one derivative, use thereof, and medicament containing said derivative” (Bayer Intellectual Property GmbH, priority 2007, dated 2015)
Where two headings read alike, the source gives them in different places.

Experiments:
[1] = molecular target: T1, mineralocorticoid receptor (Homo sapiens (Human), UniProt P08235); assay: Mineralocorticoid receptor binding test; conditions: reference 3H-aldosterone, Hi5 cytosol
Source text: 2. Mineralocorticoid Receptor Binding Test:

[2] = molecular target: T1, mineralocorticoid receptor; assay: Antimineralocorticoid action by transactivation test (MDCK reporter cells); format: cell-based; conditions: for IC50: read-out: Mineralocorticoid receptor Antagonism IC50; for Emax: read-out: Mineralocorticoid receptor Antagonism efficacy; for Mineralocorticoid receptor Antagonism (result in words): cell spans IC50 and efficacy
Experimental: 5. Determination of Antimineralocorticoid Action by Means of Transactivation Tests:
The antimineralocorticoid activity of the test substances was determined as for the transactivation tests described above.
The following modifications were undertaken: In this case reporter cell lines were used (MDCK cells) that express the human mineralocorticoid receptor, and transiently contain a reporter construct that contains luciferase under the control of a steroid hormone-responsive promoter.

[3] = molecular target: T2, androgen receptor (Homo sapiens (Human), UniProt P10275); assay: Androgenic/antiandrogenic action by transactivation test (PC3 reporter cells); format: cell-based; conditions: for IC50: 0.05 nM R1881, read-out: Androgen receptor Antagonism IC50; for EC50: read-out: Androgen receptor Agonism EC50
T2 sequence (P10275 whole entry, species assumed): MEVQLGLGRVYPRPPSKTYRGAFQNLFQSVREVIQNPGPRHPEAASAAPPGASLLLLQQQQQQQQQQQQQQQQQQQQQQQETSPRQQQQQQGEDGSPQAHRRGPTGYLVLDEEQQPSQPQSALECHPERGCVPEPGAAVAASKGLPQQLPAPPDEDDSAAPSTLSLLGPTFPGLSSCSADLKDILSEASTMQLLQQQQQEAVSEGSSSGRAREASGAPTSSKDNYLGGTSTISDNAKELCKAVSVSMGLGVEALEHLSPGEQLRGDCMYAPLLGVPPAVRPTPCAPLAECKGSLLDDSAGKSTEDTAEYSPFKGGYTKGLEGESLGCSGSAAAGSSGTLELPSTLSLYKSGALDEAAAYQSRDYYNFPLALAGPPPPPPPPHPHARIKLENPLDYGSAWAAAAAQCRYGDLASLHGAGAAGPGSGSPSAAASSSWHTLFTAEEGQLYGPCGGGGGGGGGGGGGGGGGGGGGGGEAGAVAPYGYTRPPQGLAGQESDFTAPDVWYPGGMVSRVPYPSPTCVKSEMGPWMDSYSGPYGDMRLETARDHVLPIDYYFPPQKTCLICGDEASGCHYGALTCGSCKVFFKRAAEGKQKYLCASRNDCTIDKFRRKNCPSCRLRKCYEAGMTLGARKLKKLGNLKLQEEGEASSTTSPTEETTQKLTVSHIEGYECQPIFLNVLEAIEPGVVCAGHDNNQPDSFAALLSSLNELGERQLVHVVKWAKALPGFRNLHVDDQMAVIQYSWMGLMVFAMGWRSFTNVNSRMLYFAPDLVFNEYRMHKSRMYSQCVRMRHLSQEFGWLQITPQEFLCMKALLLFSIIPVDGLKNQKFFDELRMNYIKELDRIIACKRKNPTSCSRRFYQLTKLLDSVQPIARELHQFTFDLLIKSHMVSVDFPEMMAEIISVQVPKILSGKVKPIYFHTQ
Experimental: 6. Determination of Androgenic/Antiandrogenic Action by Means of Transactivation Tests:
The androgenic/antiandrogenic action of the test substances was determined as for the transactivation tests described above.
The following modifications were made: In this case reporter cell lines were used (PC3 cells) that express the androgen receptor, and a reporter construct that contains luciferase under the control of a steroid hormone-responsive promoter.
For determination of the antiandrogenic efficacy, 0.05 nM R1881 was added to the cells, in order to achieve almost maximum stimulation of the reporter gene.

[4] = molecular target: progesterone receptor (Homo sapiens (Human), UniProt P06401); assay: Progesterone receptor binding test; conditions: for Progesterone receptor (PR) Competition factor: CF 1 = affinity of progesterone, CF > 1 lower affinity; for IC50: displacement of 3H-progesterone, cytosol from PR-expressing Hi5 insect cells; for CF PR/CF MR: ratio of competition factors CF(PR) and CF(MR)
progesterone receptor, sequence (P06401 whole entry, species assumed): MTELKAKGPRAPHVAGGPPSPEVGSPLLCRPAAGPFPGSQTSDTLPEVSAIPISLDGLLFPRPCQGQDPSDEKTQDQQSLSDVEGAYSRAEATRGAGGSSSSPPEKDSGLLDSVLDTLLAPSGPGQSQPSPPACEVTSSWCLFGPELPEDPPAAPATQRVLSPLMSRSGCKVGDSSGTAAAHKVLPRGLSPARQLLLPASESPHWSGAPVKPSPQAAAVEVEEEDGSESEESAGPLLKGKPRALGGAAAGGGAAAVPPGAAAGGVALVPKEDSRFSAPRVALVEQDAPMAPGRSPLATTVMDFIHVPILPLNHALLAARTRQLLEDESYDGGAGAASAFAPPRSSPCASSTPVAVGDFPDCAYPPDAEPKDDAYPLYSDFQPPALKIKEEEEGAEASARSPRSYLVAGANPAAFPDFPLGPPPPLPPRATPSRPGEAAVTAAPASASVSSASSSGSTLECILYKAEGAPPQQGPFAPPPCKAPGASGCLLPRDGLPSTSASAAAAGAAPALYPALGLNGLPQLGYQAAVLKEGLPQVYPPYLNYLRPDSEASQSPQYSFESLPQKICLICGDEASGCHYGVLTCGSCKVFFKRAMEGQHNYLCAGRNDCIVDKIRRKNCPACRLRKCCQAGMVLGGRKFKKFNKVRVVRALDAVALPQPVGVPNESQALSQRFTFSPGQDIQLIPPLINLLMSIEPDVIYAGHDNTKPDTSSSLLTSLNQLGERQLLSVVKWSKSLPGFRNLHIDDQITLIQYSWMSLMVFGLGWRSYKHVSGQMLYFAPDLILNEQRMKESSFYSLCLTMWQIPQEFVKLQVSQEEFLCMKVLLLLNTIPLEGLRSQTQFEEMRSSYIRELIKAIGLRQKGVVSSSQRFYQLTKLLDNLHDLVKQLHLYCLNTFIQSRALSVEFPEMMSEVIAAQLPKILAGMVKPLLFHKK
Experimental: 1. Progesterone Receptor Binding Test:
Using cytosol from progesterone receptor-expressing insect cells (Hi5), competitive binding to the progesterone receptor was determined from the ability to displace ^3H-progesterone as reference substance from the receptor.

[5] = molecular target: fusion protein from the PR-ligand-binding domain and a Gal4-transactivation domain (Homo sapiens, UniProt P06401); assay: Progestational action by transactivation test (CHO K1 reporter cells); format: cell-based; conditions: CHO K1 luciferase reporter, 16 hours incubation; for EC50: read-out: Progesterone receptor Agonism EC50; for Emax: read-out: Progesterone receptor Agonism efficacy
fusion protein from the PR-ligand-binding domain and a Gal4-transactivation domain, sequence (P06401 679-913): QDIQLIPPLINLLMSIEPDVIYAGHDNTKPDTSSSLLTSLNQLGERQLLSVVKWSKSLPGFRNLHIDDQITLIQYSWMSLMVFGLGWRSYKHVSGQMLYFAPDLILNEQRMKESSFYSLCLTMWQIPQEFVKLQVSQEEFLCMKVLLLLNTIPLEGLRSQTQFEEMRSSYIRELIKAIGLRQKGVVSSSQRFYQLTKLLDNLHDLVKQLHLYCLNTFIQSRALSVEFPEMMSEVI
Experimental: 4. Determination of Progestational Action by Means of Transactivation Tests:
The test compounds were added eight hours later, and the cells were incubated with the compounds for 16 hours. The tests were carried out in triplicate. At the end of incubation the medium containing the effector was removed and replaced with lysis buffer. After luciferase assay substrate (Promega, #E1501) had been added, the 96-well plates were then put in a microplate luminometer (Pherastar, BMG Labtech), and the luminescence was measured. The IC50 values were evaluated using software for calculating dose-effect relations.

[6] = molecular target: T2, androgen receptor; assay: Androgen receptor binding test; conditions: reference 3H-testosterone, Hi5 cytosol; for IC50: read-out: Androgen receptor IC50
Experimental: Androgen Receptor Binding Test:
The test was carried out as in 1., with the following modifications: cytosol from androgen receptor-expressing insect cells (Hi5) was used, and the reference substance was ^3H-testosterone.

[7] = MDCK reporter cells, 1 nM aldosterone
[8] = 0.05 nM R1881, read-out: Androgen receptor Antagonism efficacy
[9] = read-out: Androgen receptor Agonism efficacy

T1 sequence (P08235 whole entry): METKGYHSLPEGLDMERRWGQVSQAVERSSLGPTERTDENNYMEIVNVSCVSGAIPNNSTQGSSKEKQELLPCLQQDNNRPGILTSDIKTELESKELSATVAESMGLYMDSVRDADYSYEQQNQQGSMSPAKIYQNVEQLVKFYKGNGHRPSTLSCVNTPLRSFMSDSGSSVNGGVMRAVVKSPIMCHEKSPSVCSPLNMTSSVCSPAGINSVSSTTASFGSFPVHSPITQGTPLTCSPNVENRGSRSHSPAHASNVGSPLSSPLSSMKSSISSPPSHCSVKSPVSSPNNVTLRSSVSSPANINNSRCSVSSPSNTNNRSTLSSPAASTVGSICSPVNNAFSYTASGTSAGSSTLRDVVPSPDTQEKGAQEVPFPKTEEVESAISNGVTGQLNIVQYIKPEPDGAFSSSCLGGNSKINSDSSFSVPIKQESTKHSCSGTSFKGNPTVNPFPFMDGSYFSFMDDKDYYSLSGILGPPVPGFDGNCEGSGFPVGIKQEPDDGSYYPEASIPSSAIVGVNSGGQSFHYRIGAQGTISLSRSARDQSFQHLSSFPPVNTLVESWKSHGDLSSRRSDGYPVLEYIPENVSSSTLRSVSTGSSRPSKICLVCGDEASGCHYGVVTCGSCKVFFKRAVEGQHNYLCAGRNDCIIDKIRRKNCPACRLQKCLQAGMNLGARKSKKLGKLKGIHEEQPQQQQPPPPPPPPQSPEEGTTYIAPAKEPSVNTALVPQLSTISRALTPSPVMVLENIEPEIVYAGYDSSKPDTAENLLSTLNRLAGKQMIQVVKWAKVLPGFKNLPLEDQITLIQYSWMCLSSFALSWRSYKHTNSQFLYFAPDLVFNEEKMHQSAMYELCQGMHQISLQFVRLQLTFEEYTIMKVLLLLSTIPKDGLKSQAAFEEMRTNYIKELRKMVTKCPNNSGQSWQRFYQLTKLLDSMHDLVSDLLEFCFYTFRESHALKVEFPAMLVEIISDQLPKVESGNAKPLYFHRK

SMILES	Mineralocorticoid receptor (MR) Competition factor [1]	IC50 [2, 7]	Emax [2, 7]	Emax [3, 8]	Emax [3, 9]	Progesterone receptor (PR) Competition factor [4]	IC50 [4]	EC50 [5]	Emax [5]	Androgen receptor Competition factor [6]	IC50 [3]	EC50 [3]	CF PR/CF MR [4]	Emax ([2]; MDCK)	IC50 [6]	Mineralocorticoid receptor Antagonism (result in words) [2, 7]
C[C@]12CC[C@H]3[C@@H](CCC4=CC(=O)CC[C@@H]43)[C@@H]1CC[C@@]21C=CCO1 (stereo in doubt) [Example 1, 17α-(1′-Propenyl)-17β-3′-oxidoestra-4-en-3-one]	2.6	31 nM	83%	29%	62.7%	0.46	3 nM									
C[C@]12CC[C@H]3[C@@H](C=CC4=CC(=O)CC[C@@H]43)[C@@H]1CC[C@@]21C=CCO1 (stereo in doubt) [Example 2, 17α-(1′-Propenyl)-17β-3′-oxidoestra-4,6-dien-3-one]	8.9	92 nM	136%	34.4%	31.9%	2.29	55.5 nM	2.9 nM	36.4%							
C[C@]12CC[C@H]3[C@@H](CCC4=CC(=O)CC[C@@H]43)[C@@H]1CC1(CC1)[C@@]21C=CCO1 (stereo in doubt) [Example 6, 16,16-Ethylene-17α-(1′-propenyl)-17β-3′-oxidoestra-4-en-3-one]	22.9	1000 nM	65.1%	70.1%	49.7%	3.41	110 nM									
CC[C@]12CC[C@H]3[C@@H](CCC4=CC(=O)CC[C@@H]43)[C@@H]1CC[C@@]21C=CCO1 (stereo in doubt) [Example 7, 18-Methyl-17α-(1′-propenyl)-17β-3′-oxidoestra-4-en-3-one]	1.6	5 nM	87.8%	25.4%	78.3%	0.19	5.3 nM			0.5	160 nM	3.7 nM	0.12			
CC[C@]12CC[C@H]3[C@@H](C=CC4=CC(=O)CC[C@@H]43)[C@@H]1CC[C@@]21C=CCO1 (stereo in doubt) [Example 8, 18-Methyl-17α-(1′-propenyl)-17β-3′-oxidoestra-4,6-dien-3-one]	1.2	66 nM	112%	5%	62%	1.78		1.1 nM	12.3%							
C[C@]12CCC(=O)C=C1[C@@H]1C[C@@H]1[C@H]1[C@@H]3[C@@H]4C[C@@H]4[C@@]4(CCC(=O)O4)[C@@]3(C)CC[C@@H]12 [A, 6β,7β-15β,16β-dimethylene-3-oxo-17-pregn-4-ene-21,17β-carbolactone, reference compound]	0.5					2.7			72.2%					64.1%		
C[C@@H]1CC2=CC(=O)CC[C@@H]2[C@H]2CC[C@@]3(C)[C@@H](CC[C@@]34C=CCO4)[C@@H]21 [Example 3, 7α-Methyl-17α-(1′-propenyl)-17β-3′-oxidoestra-4-en-3-one]	3.2	17 nM	112%	5%	80.2%	2.41	62 nM	3.7 nM	61.6%							
CC[C@@H]1CC2=CC(=O)CC[C@@H]2[C@H]2CC[C@@]3(C)[C@@H](CC[C@@]34C=CCO4)[C@H]12 [Example 4, 7α-Ethyl-17α-(1′-propenyl)-17β-3′-oxidoestra-4-en-3-one]	4.1	310 nM	82.2%	5%	62.3%	11.75	130 nM	67 nM	65.1%	2.9	1000 nM	7.3 nM	2.87		64 nM	
C=C[C@@H]1CC2=CC(=O)CC[C@@H]2[C@H]2CC[C@@]3(C)[C@@H](CC[C@@]34C=CCO4)[C@@H]21 [Example 5, 17α-(1′-Propenyl)-7α-vinyl-17β-3′-oxidoestra-4-en-3-one]	2.6	57 nM	121%	5%	86.8%	2.46		1.2 nM	21.9%	2.2	1000 nM	3.7 nM	0.95		53 nM	
CC[C@]12CC[C@H]3[C@@H]([C@H](C)CC4=CC(=O)CC[C@@H]43)[C@@H]1CC[C@@]21C=CCO1 [Example 9, 7α,18-Dimethyl-17α-(1′-propenyl)-17β-3′-oxidoestra-4-en-3-one]	1.6	38 nM	105%	5%	77.9%	3.26	77 nM	7.1 nM	55.9%	3.0	1000 nM	3 nM	2.04		81 nM	
CC[C@@H]1CC2=CC(=O)CC[C@@H]2[C@H]2CC[C@@]3(CC)[C@@H](CC[C@@]34C=CCO4)[C@H]12 [Example 10, 7α-Ethyl-18-methyl-17α-(1′-propenyl)-17β-3′-oxidoestra-4-en-3-one]	1.1	850 nM	39.2%	5%	70.4%	7.03	170 nM	780 nM	26.4%	4.1	1000 nM	9.4 nM	6.39		110 nM	
C=C[C@@H]1CC2=CC(=O)CC[C@@H]2[C@H]2CC[C@@]3(CC)[C@@H](CC[C@@]34C=CCO4)[C@@H]21 [Example 11, 7α-Vinyl-18-methyl-17α-(1′-propenyl)-17β-3′-oxidoestra-4-en-3-one]	1.3			5%	88.8%	6.24	170 nM	100 nM	29.5%	4.7	1000 nM	5.3 nM	4.80		1300 nM	Partial agonist
CC[C@]12CC[C@H]3[C@@H]([C@H](C4CC4)CC4=CC(=O)CC[C@@H]43)[C@@H]1CC[C@@]21C=CCO1 [Example 12, 7α-Cyclopropyl-18-methyl-17α-(1′-propenyl)-17β-3′-oxidoestra-4-en-3-one]	2.0			5%	70.1%	8.51	210 nM	55 nM	30.9%							Partial agonist
CC[C@]12CC[C@H]3[C@@H](C[C@@H](CO)C4=CC(=O)CC[C@@H]43)[C@@H]1CC[C@@]21C=CCO1 [Example 13, 6β-Hydroxymethylene-18-methyl-17α-(1′-propenyl)-17β-3′-oxidoestra-4-en-3-one]	2.2	110 nM	98.8%	48.1%	5%	88.59	2100 nM	1000 nM	5%	1000.0	140 nM	1000 nM	40.27		1000 nM	
